Laboratory results reported in patent US8486953B2, “Thienopyrimidines for pharmaceutical compositions” (Boehringer Ingelheim International GmbH, priority 2008, dated 2013).

Columns and labels:
[1] = system: Mnk2 (Mnk2a or Mnk2b) or Mnk1; settings: cell culture cells transfected with Mnk2 (Mnk2a or Mnk2b) or Mnk1; cited from earlier work
human Mnk2a = human Mnk2a (Homo sapiens (Human), UniProt Q9HBH9); test: Mnk2a in vitro kinase assay (indirect fluorescence polarization); assay type: biochemical
Experimental: (§1) Inhibitory potency of compounds against Mnk1, Mnk2a and other kinases was assessed with assays based on a format known to those skilled in the art as the indirect (competitive) fluorescence polarization. The assay detection system comprises a small fluorophore-labeled phospho-peptide (termed ligand) bound to a phospho-specific antibody. The product generated by the kinase reaction competes with the ligand for antibody binding. Based on the larger molecular volume of the bound ligand, which results in a lower rotation rate in solution, its emitted light has a higher degree of polarization than the one from the free ligand.
(§2) In brief, the open reading frames of human Mnk1 and Mnk2a were amplified from cDNA using the forward/reverse primer pairs
(§3) (utilized restriction sites underlined), respectively, and cloned into the BamHI and SalI sites of the vector pGEX-4T1 (Amersham, Sweden, cat. no. 27-4580-01). These constructs allow prokaryotic expression of Mnk1 or Mnk2a as fusion protein with a N-terminal glutathione S-transferase (GST) tag, referred to as GST-Mnk1 or GST-Mnk2a. The following expression and purification procedure was identical for GST-Mnk1 and GST-Mnk2a, referring in general to GST-Mnk, when not distinguishing between the two isoforms. Expression of GST-Mnk was in E. coli BL21 (Merck Biosciences, Germany, cat. no. 69449). Cells were grown in LB-Bouillon (Merck, Germany, cat. no. 1.10285) supplemented with 100 μg/ml ampicillin (Sigma, Germany, cat. no. A9518) at 37° C. When the culture had reached a density corresponding to an A600 of 0.8, an equal volume of ice cold LB/ampicillin was added, the culture transferred to 25° C. and induced for 4 h with 1 mM isopropyl thiogalactoside (IPTG, Roth, Germany, cat. no. 2316.4). Cells harvested by centrifugation were resuspended in 10 ml lysis buffer (50 mM tris(hydroxymethyl)aminomethane hydrochloride (Tris/HCl, Sigma, Germany, cat. no. T5941) pH 7.5, 300 mM sodium chloride (NaCl, Sigma, Germany, cat. no. S7653), 5% (w/v) glycerol (Sigma, Germany, cat. no. G5516), 3 mM DTT dithiotreitol (DTT, Sigma, Germany, cat. no. D9779)) per gram wet weight cell pellet. Lysates were prepared by disruption of cells with a sonifier and subsequent clearing by centrifugation at 38000 g for 45 min at 4° C.
(§4) The lysate was applied to a GSTPrep FF 16/10 column (Amersham, Sweden, cat. no. 17-5234-01) equilibrated with lysis buffer. Removal of unbound material was with 3 column volumes (CV) lysis buffer. Elution was with 2 CV of elution buffer (50 mM Tris/HCl pH 7.5, 300 mM NaCl, 5% (w/v) glycerol, 20 mM glutathione (Sigma, Germany, cat. no. G4251)). Peak fractions were pooled and the protein transferred into storage buffer (50 mM Tris/HCl pH 7.5, 200 mM NaCl, 0.1 mM ethylene glycol-bis(2-aminoethylether)-N,N,N′,N′-tetraacetic acid (EGTA, Aldrich, Germany, cat. no. 23, 453-2), 1 mM DTT, 10% (w/v) glycerol, 0.5 M sucrose (Sigma, Germany, cat. no. SO389) by gel filtration on a PD10 desalting column (Amersham, Sweden, cat. no. 17-0851-01). Aliquots were shock frozen in liquid nitrogen and stored at −80° C.
(§5) Activation of Mnk1 and Mnk2a was at a concentration of 2.5 μM of either purified GST-Mnk1 or GST-Mnk2a by incubation with 150 nM pre-activated NHis-ERK2 (see ERK2 assay for preparation) and 50 μM adenosine triphosphate (ATP, Sigma, cat. no. A2699) in a buffer comprising 20 mM N-(2-hydroxyethyl)piperazine-N′-(2-ethanesulfonic acid) (HEPES, Fluka, Germany, cat. no 54459)/potassium hydroxide (KOH, Roth, Germany, cat. no 6751.1) pH 7.4, 10 mM magnesium chloride (MgCl2, Sigma, Germany, cat. no. M2670), 0.25 mM DTT, 0.05% (w/v) polyoxyethylene 20 stearylether (Brij 78, Sigma, Germany, cat. no. P4019) (HMDB buffer) for 45 min at 30° C.

human Mnk1 = human Mnk1 (Homo sapiens (Human), UniProt Q9BUB5); test: Mnk1 in vitro kinase assay (indirect fluorescence polarization); assay type: biochemical
Experimental: as §1, §2, §3, §4, §5

Chain of human Mnk2a (Q9HBH9 whole entry): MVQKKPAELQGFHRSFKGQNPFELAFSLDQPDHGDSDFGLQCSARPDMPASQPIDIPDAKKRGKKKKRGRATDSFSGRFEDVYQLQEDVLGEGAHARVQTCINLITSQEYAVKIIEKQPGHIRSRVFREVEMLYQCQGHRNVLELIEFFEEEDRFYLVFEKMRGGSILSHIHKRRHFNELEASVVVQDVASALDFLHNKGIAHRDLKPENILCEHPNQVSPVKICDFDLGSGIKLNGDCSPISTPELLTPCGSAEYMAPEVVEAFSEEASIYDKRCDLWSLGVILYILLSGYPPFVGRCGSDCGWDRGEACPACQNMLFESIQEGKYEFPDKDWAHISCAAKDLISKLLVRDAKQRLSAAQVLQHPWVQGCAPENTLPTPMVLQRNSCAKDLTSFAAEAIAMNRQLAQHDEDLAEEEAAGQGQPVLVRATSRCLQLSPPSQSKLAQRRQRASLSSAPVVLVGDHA
Chain of human Mnk1 (Q9BUB5 other isoform, or with tags, fused parts or gaps): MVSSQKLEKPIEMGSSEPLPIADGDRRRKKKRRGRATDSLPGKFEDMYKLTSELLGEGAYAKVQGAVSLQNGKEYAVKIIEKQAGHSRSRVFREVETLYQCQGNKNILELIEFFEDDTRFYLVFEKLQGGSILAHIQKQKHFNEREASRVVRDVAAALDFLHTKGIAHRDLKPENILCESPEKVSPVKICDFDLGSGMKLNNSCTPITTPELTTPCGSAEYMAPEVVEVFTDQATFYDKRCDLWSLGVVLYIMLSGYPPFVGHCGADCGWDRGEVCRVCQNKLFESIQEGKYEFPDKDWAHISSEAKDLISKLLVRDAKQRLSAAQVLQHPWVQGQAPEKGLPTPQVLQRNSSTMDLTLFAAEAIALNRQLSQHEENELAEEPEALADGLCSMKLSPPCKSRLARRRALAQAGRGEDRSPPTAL

Row | IC50 (human Mnk2a) [nM] | IC50 (human Mnk1) [nM] | Compound | reduction of phosphorylated eIF4E [1]
1 | 28 | 120 | CCOc1cc(C(N)=O)ccc1Nc1ncnc2sc(C(N)=O)c(C)c12 [Example 2, 4-(4-Carbamoyl-2-ethoxyphenylamino)-5-methylthieno[2,3-d]pyrimidine-6-carboxamide] | 
2 | 35 | 180 | COCCNC(=O)c1sc2ncnc(Nc3ccc(F)cc3OC3CCOCC3)c2c1C [Example 6, 4-(4-Fluoro-2-(tetrahydro-2H-pyran-4-yloxy)phenylamino)-N-(2-methoxyethyl)-5-methylthieno[2,3-d]pyrimidine-6-carboxamide] | 
3 | 27 | 100 | Cc1c(C(=O)NCCCN(C)C)sc2ncnc(Nc3ccc(F)cc3OC3CCOCC3)c12 [Example 9, N-(3-(Dimethylamino)propyl)-4-(4-fluoro-2-(tetrahydro-2H-pyran-4-yloxy)phenyl-amino)-5-methylthieno[2,3-d]pyrimidine-6-carboxamide] | 
4 | 560 | 680 | Cc1c(C(=O)NCCCN(C)C)sc2ncnc(Nc3ccc(C(F)(F)F)nc3OC3CCOCC3)c12 [Example 34, 4-(2-(Tetrahydro-2H-pyran-4-yloxy)-6-(trifluoromethyl)pyridin-3-ylamino)-N-(3-(dimethylamino)propyl)-5-methylthieno[2,3-d]pyrimidine-6-carboxamide] | 
5 | 110 | 210 | Fc1ccc(Nc2ncnc3sc4c(c23)CCNC4)c(OC2CCOCC2)c1 [Example 41, [4-fluoro-2-(tetrahydro-2H-pyran-4-yloxy)-phenyl]-(5,6,7,8-tetrahydro-pyrido[4′,3′:4,5]thieno[2,3-d]pyrimidin-4-yl)-amine] | 

The next lines start with the compound.

Row | Compound | IC50 (human Mnk2a) [nM] | IC50 (human Mnk1) [nM] | reduction of phosphorylated eIF4E [1]
6 | Nc1ncnc2n[nH]c(Nc3ccc(F)cc3)c12 [CGP57380] |  |  | strong reduction
7 | Cc1c(C(=O)NCCN2CCOCC2)sc2ncnc(Nc3ccc(F)cc3OC3CCOCC3)c12 [Example 10, 4-(4-Fluoro-2-(tetrahydro-2H-pyran-4-yloxy)phenylamino)-5-methyl-N-(2-morpholinoethyl)thieno[2,3-d]pyrimidine-6-carboxamide] | 34 | 210 | 
8 | Cc1c(C(N)=O)sc2ncnc(Nc3ccc(F)cc3OC3CCN(Cc4ncon4)CC3)c12 [Example 48, 4-(2-(1-((1,2,4-Oxadiazol-3-yl)methyl)piperidin-4-yloxy)-4-fluorophenylamino)-5-methylthieno[2,3-d]pyrimidine-6-carboxamide] | 92 | 460 | 
9 | Cc1c(C(=O)NCCCN(C)C)sc2ncnc(Nc3ccc(F)cc3OC(C)C)c12 [Example 53, N-(3-(Dimethylamino)propyl)-4-(4-fluoro-2-iso-propoxyphenylamino)-5-methylthieno[2,3-d]pyrimidine-6-carboxamide] | 6 | 35 | 
